“And” between values parts separate entries of the source, which are not always exact repeats. Identical values can stand only once. “Also recorded” adds a separate entry of the source. Like-named read-outs stand apart in the source and are kept apart here.
Columns and labels:
[1] = test system: α1-adrenergic receptor; assay: noradrenaline-induced contraction in isolated rat thoracic aorta (pA2); design: species or system Wistar rat; conditions: Schild plot, mean ± SEM of eight, listed as KMST
Method: Clonidine, noradrenaline and serotonin (10^−8˜10^−4 M) were added to the bath to induce contractions after pretreatment with KMST for 15 min.

[2] = target: T1, β1-adrenoceptor (Rattus norvegicus, UniProt P18090); assay: isoprenaline-induced positive inotropic effects in electrically stimulated rat left atria (pA2); design: species or system Wistar rat; conditions: Schild plot, mean ± SEM of eight, listed as KMST
T1 construct: Left atria were dissected from the hearts and mounted in a 10 ml organ bath; from tissue; host or cells: rat left atria, electrically driven
Method: Rats of either sex weighing 350-500 g were sacrificed after mild anesthesia with ether, and their hearts were quickly excised. Left atria were dissected from the hearts and mounted in a 10 ml organ bath with one end fixed and the other end connected to a force displacement transducer (Grass, Model FT03). […] Atria were pre-stretched to a baseline tension of 0.5 g and equilibrated for 60 min in an aerated Krebs solution before starting experimental protocols. Atria were driven at 2-s intervals via two platinum electrodes on each side. An incubation time of 30 min was allowed for the test compound.

[3] = target: T2, 5-HT1B (Rattus norvegicus, UniProt P28564); assay: [3H]GR125743 receptor binding in rat cortex; design: species or system Wistar rat; conditions: [3H]GR125743 (5-HT1B/1D), rat cortex; read-out: Ki 5-HT1B
T2 construct: from tissue; host or cells: Wistar rat cortex membranes
Method: (§1) The homogenate was pressure filtered through muslin. Filtrate was centrifuged at 1000 g for 10 min. […] Protein content was determined by Bradford's method.

[4] = target: α2 receptors; assay: [3H]yohimbine receptor binding in rat cortex; design: species or system Wistar rat
Method: as §1

[5] = target: T3, β2 receptors (Rattus norvegicus, UniProt P10608); assay: [3H]CGP-12177 receptor binding in rat lung; design: species or system Wistar rat; conditions: [3H]CGP-12177, rat lung
T3 construct: from tissue; host or cells: Wistar rat lung membranes
Method: as §1

[6] = test system: phenylephrine-induced contractions in rat thoracic aorta; assay: LPS-induced vascular hyporeactivity: phenylephrine-induced contractions in rat thoracic aorta; assay type: in vivo, Wistar rat; conditions: for pD2 at 3rd hr / pD2 at 5th hr: pD2 to phenylephrine
[7] = test system: epinephrine-induced human platelet aggregation; assay: epinephrine-induced human platelet aggregation; assay type: cell-based; conditions: epinephrine 5 μM, PRP
Method: Venous blood from human volunteer donors was collected in 10 ml Monovette containing 1 ml citrate solution (0.106M trisodium citrate; Sarstedt, Nümbrecht, Germany) and centrifuged (400 g, 10 min, 20° C.). […] After centrifugation (10 min, 2000 g, 20° C.), the platelet pellet was resuspended in wishing buffer (113 mM NaCl, 4 mM Na2HPO4, 24 mM NaH2PO4, 4 mM KCl, 0.2 mM EGTA(Ethylene glycol-bis-(2-aminoethyl ether) N,N,N′-tetraacetic acid), 0.1% (wt/vol) glucose, pH 6.0) and recentrifuged (10 min, 2000 g, 20° C.). The washed platelets were resuspended in incubation buffer (134 mM NaCl, 12 mM NaHCO3, 2.9 mM KCl, 0.34 mM NaH2PO4, 5 mM HEPES (N-(2-hydroxyethyl) piperazine-N′-(2-ethanesulfonic acid)), 5 mM glucose, pH7.4), cells were counted in a Sysmex hematology analyzer (Sysmex, CDA-500, Japan) and adjusted to a final concentration of 2×10^8 platelets/ml.
The aggregation of the platelets in platelet-rich plasma (PRP) was measured as a change in light absorbance by a Payton dual-channel aggregometer (NBS, Hema tracer, Japan). PRP (240 μL) was stirred (700 rpm) at 37° C. for 1 min, and 5 μL epinephrine (final concentration 5 μM), serotonin (final concentration 5 μM) was added. After which the rate of primary aggregation (1/min) and maximum aggregation (%) at 5 min were recorded. To study the effects of compounds on epinephrine or serotonin-induced aggregation, PRP was incubated with 5 μL of compounds at various concentrations for 1 min before epinephrine or serotonin was added. IC50 values given were calculated from the secondary aggregation data.

[8] = test system: anesthetized rats; assay: intra-cisternal injection and NTS microinjection, BP and HR; assay type: in vivo, rat
Method: Intra-cisternal injections of KMST (0.3, 0.03 μmol), yohimbine [0.03 μmol), and clonidine (38 pmol), were performed in rats as described by Duan et al (1987). Briefly, rats weighing 250-300 g were anaesthetized with pentobarbital sodium (50 mg kg^−1, i.p.) and mounted in a David-Kopf stereotaxic instrument (Yeh J L. et al., Brain. Res. Bull., 30:641-648, 1993). The calvarium was exposed and a 1 mm diameter trephine hole was drilled 1.8 mm lateral to the coronary and 1.5 mm posterior to the sagittal sutures. A cannula (0.7 mm O.D.) connected to a Hamilton syringe (RN-705, 5051) by PE-50 was advanced 4.7 mm into the brain using the electrode carrier.
Rats were anesthetized and placed in a David-Kopf stereotaxic instrument. The cerebellum was exposed after removing the skin and occipital bone. The NTS coordinates were (reference to lambda) P 5-6 mm, L/R 0.5-1 mm, depth 6-7.5 mm (Wu et al., 1994). NTS injection sites were confirmed by decreasing BP and HR following micro-injection of 1% L-glutamate. […] Pre-treatment with clonidine was performed 15 min before administration of test agents. At the end of experiments, the animals were sacrificed. The brain was removed and sectioned for histological confirmation of the drug application site.

[9] = test system: IL-1β, IL-6, IFN-γ and TNF-α; assay: LPS-induced plasma cytokine immunoreactivity; assay type: in vivo, rat; conditions: 1 mg kg−1, i.v., pretreatment
Method: (§2) In brief, Wistar rats weighing 250-300 g were anesthetized with pentobarbital sodium (50 mg kg^−1, i.p.). Following tracheal cannulation, systemic arterial BP and HR were recorded from the femoral artery by a pressure transducer (model P10EZ; Spectramed, Oxnard, Calif., U.S.A.) connected to a recorder (GOULD, Valley View, Ohio, Model P50). Body temperature was maintained at 37° C. by an electric heating pad. A femoral vein was cannulated for intravenous injection of drugs and LPS (10 mg kg^−1).
(§3) Blood was collected from venous cannula, injected into ice-cold heparinized Eppendorf tubes and centrifuged at 1500 rpm for 10 min at 4° C. Plasma supernatant was stored at −70° C. until analyzed. Solid phase enzyme immunoassay that specifically detects murine IL-1β, IL-6, IFN-γ and TNF-α was used with a detection limit of >10 pg/ml (Endogen, U.S.A). Pre-treatment with KMST and other agents was performed 15 minutes before intravenous injection of LPS. Blood was collected from venous cannula. Blood glucose was measured with a glucose test strip (Glucotide, Bayer, U.S.A) at 1, 3 and 5 hours.

[10] = LPS-induced blood glucose changes; assay type: in vivo, rat
Method: as §2, §3

[11] = agent given after LPS injection (1 hr)
[12] = agent given before LPS injection (30 min)

T1 sequence (P18090 whole entry): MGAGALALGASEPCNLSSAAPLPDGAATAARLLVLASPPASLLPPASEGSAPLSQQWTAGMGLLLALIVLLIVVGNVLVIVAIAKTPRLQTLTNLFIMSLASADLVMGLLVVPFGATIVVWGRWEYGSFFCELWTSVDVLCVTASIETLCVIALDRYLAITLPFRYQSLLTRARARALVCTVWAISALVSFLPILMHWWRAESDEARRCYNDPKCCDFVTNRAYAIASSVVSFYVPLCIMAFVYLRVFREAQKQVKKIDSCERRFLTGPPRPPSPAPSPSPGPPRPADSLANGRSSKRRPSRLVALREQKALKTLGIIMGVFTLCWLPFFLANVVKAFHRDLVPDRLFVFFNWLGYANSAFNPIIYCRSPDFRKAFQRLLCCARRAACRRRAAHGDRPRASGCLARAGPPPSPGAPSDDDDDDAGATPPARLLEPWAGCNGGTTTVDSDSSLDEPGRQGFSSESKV
T3 sequence (P10608 whole entry): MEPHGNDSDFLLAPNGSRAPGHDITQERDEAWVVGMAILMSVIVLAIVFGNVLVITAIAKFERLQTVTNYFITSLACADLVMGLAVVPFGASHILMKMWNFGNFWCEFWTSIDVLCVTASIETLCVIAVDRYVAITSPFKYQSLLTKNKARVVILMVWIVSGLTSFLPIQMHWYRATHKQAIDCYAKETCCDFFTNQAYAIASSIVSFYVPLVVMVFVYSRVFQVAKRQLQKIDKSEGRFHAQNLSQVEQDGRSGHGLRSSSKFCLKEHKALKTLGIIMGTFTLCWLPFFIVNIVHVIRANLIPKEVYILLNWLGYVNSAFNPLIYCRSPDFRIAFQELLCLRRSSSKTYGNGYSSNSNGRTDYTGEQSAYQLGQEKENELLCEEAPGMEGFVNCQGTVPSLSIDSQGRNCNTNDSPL
T2 sequence (P28564 whole entry): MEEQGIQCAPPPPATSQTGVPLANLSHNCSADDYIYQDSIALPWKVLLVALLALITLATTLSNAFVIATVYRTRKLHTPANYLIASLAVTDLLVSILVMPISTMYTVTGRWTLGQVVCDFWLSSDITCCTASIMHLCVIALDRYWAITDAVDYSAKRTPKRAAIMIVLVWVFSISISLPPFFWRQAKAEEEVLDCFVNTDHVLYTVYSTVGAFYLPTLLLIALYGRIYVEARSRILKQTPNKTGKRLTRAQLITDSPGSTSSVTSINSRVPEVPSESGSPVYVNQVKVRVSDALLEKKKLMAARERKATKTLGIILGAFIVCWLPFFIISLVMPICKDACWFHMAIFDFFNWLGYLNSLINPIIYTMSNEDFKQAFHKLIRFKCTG

With `CC=Cc1ccc(OCC(O)CN2CCN(c3cccc(Cl)c3)CC2)c(OC)c1` (stereo not shown) [Compound 1] as the compound, how does the “α1 pA2 value” [1] read?
The value was 7.97±0.39.

What about the “β1 pA2 value” [2] of the same compound?
The value was 6.66±0.17 and 6.66.

And the Ki [3]?
The Ki was 0.67 µM.

What about the Ki [4] of the same compound?
The Ki was 1.84 µM.

And the Ki ([4]; listed as KMST)?
The Ki was 1.39 µM.

What about the Ki [5] of the same compound?
Its Ki is greater than 10 µM.

What about the “aortic contractility of LPS-treated rats versus vehicle group” value ([6]; 1 mg kg−1 i.v. before or after application of LPS, listed as KMST) of the same compound?
Its value is “improved the aortic contractility better than in vehicle group; also recorded: increased aortic contractility more than the vehicle group”.

And the “pD2 at 3rd hr” value [6, 11]?
Its value is 6.29 ± 0.08.

And the “pD2 at 5th hr” value [6, 11]?
The value was 5.57 ± 0.17.

What about the “pD2 at 3rd hr” value [6, 12] of the same compound?
The value was 7.16 ± 0.18.

And the “pD2 at 5th hr” value [6, 12]?
The value was 6.29 ± 0.11.

And the IC50 [7]?
The IC50 was 2.78 µM.

What about the “BP and HR after intra-cisternal injection and NTS microinjection” value ([8]; central administration) of the same compound?
Its value is “increased BP and HR”.

And the “clonidine-induced hypotension and bradycardia” value ([8]; high dose (0.3 μmol))?
The value was “reduced both”.

What about the clonidine-induced bradycardia ([8]; low dose (0.03 μmol)) of the same compound?
Its clonidine-induced bradycardia is “did not inhibit”.

What about the clonidine-induced hypotension ([8]; low dose (0.03 μmol)) of the same compound?
The clonidine-induced hypotension was “reduced”.

What about the “LPS-induced elevations of IL-1β, IL-6, IFN-γ and TNF-α levels” value [9] of the same compound?
Its value is “inhibited”.

What about the LPS-induced early hyperglycemia ([10]; at 1 and 3 hours) of the same compound?
The LPS-induced early hyperglycemia was “inhibited”.

What about the LPS-induced hypoglycemia ([10]; at 5 hours) of the same compound?
Its LPS-induced hypoglycemia is “did not affect”.

— patent US6887878B2, “KMST isoeugenol derivatives and pharmaceutical activity” (Ing-Jun Chen, priority 2003, dated 2005)
